Experimental data from PubChem BioAssay (NCI).
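Growth conditions: 96-well plates. Treatment: test compound, 48 hours, 5 concentrations. Analysis: linear interpolation between bracketing concentrations; unreached endpoints set to highest concentration. At the GI50, growth is halved. TGI: total growth inhibition.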

Key:
Test in all cases: DTP human tumour cell line panel, 48 h; in the data active = GI50 below about 0.43 µM; inactive = the rest
786-0 renal = test system: 786-0 renal
A498 renal = test system: A498 renal
ACHN renal = test system: ACHN renal
BT-549 breast = test system: BT-549 breast
CAKI-1 renal = test system: CAKI-1 renal
CCRF-CEM leukemia = test system: CCRF-CEM leukemia
COLO 205 colon = test system: COLO 205 colon
DU-145 prostate = test system: DU-145 prostate
HCC-2998 colon = test system: HCC-2998 colon
HCT-116 colon = test system: HCT-116 colon
HCT-15 colon = test system: HCT-15 colon
HL-60(TB) leukemia = test system: HL-60(TB) leukemia
HOP-62 NSCLC = test system: HOP-62 NSCLC
HS 578T breast = test system: HS 578T breast
HT29 colon = test system: HT29 colon
IGROV1 ovarian = test system: IGROV1 ovarian
K-562 leukemia = test system: K-562 leukemia
KM12 colon = test system: KM12 colon
LOX IMVI melanoma = test system: LOX IMVI melanoma
M14 melanoma = test system: M14 melanoma
MALME-3M melanoma = test system: MALME-3M melanoma
MCF7 breast = test system: MCF7 breast
MDA-MB-231 breast = test system: MDA-MB-231 breast
MDA-MB-435 = test system: MDA-MB-435
MOLT-4 leukemia = test system: MOLT-4 leukemia
NCI-H226 lung = test system: NCI-H226 lung
NCI-H23 lung = test system: NCI-H23 lung
NCI-H460 lung = test system: NCI-H460 lung
NCI-H522 lung = test system: NCI-H522 lung
NCI/ADR-RES ovarian = test system: NCI/ADR-RES ovarian
OVCAR-3 ovarian = test system: OVCAR-3 ovarian
OVCAR-4 ovarian = test system: OVCAR-4 ovarian
OVCAR-5 ovarian = test system: OVCAR-5 ovarian
OVCAR-8 ovarian = test system: OVCAR-8 ovarian
PC-3 prostate = test system: PC-3 prostate
RPMI-8226 leukemia = test system: RPMI-8226 leukemia
RXF 393 renal = test system: RXF 393 renal
SF-268 CNS = test system: SF-268 CNS
SF-539 CNS = test system: SF-539 CNS
SK-MEL-28 melanoma = test system: SK-MEL-28 melanoma
SK-MEL-5 melanoma = test system: SK-MEL-5 melanoma
SK-OV-3 ovarian = test system: SK-OV-3 ovarian
SN12C renal = test system: SN12C renal
SNB-19 CNS = test system: SNB-19 CNS
SNB-75 CNS = test system: SNB-75 CNS
SR leukemia = test system: SR leukemia
SW-620 colon = test system: SW-620 colon
T-47D breast = test system: T-47D breast
TK-10 renal = test system: TK-10 renal
U251 CNS = test system: U251 CNS
UACC-62 melanoma = test system: UACC-62 melanoma
UO-31 renal = test system: UO-31 renal
A549 NSCLC = test system: A549 NSCLC
SF-295 CNS = test system: SF-295 CNS
SK-MEL-2 melanoma = test system: SK-MEL-2 melanoma
UACC-257 melanoma = test system: UACC-257 melanoma

NC(=O)c1ccccc1Nc1ccc2nnc(-c3ccncc3)n2n1
5.41 µM: TGI (IGROV1 ovarian)
28.9 µM: TGI (SF-539 CNS)
20.6 µM: TGI (U251 CNS)
21.2 µM: TGI (KM12 colon)
30.5 µM: TGI (OVCAR-4 ovarian)
34.5 µM: TGI (HCC-2998 colon)
18 µM: TGI (NCI-H522 lung)
26.5 µM: TGI (M14 melanoma) | TGI (SNB-75 CNS)
17.6 µM: TGI (UO-31 renal)
3.75 µM: TGI (LOX IMVI melanoma)
39.6 µM: TGI (HL-60(TB) leukemia)
26.7 µM: TGI (COLO 205 colon)
14.3 µM: TGI (HCT-116 colon)
26.9 µM: TGI (MDA-MB-435)
44.4 µM: TGI (NCI-H226 lung) | TGI (SK-OV-3 ovarian)
30.4 µM: TGI (MOLT-4 leukemia)
31.5 µM: TGI (OVCAR-8 ovarian)
40.4 µM: TGI (NCI-H23 lung)
27.2 µM: TGI (A498 renal)
30.3 µM: TGI (PC-3 prostate)
inactive: GI50 (786-0 renal) 10.8 µM | GI50 (A498 renal) 14.2 µM | GI50 (ACHN renal) 6.32 µM | GI50 (BT-549 breast) 1.9 µM | GI50 (CAKI-1 renal) 2.45 µM | GI50 (CCRF-CEM leukemia) 3.12 µM | GI50 (COLO 205 colon) 11.6 µM | GI50 (DU-145 prostate) 14.3 µM | GI50 (HCC-2998 colon) 16.6 µM | GI50 (HCT-116 colon) 3.77 µM | GI50 (HCT-15 colon) 5.48 µM | GI50 (HL-60(TB) leukemia) 14.3 µM | GI50 (HOP-62 NSCLC) 9.93 µM | GI50 (HS 578T breast) 18.1 µM | GI50 (HT29 colon) 6.39 µM | GI50 (IGROV1 ovarian) 2.23 µM | GI50 (K-562 leukemia) 11.1 µM | GI50 (KM12 colon) 9.34 µM | GI50 (LOX IMVI melanoma) 1.87 µM | GI50 (M14 melanoma) 11.1 µM | GI50 (MALME-3M melanoma) 8.38 µM | GI50 (MCF7 breast) 3.1 µM | GI50 (MDA-MB-231 breast) 9.39 µM | GI50 (MDA-MB-435) 7.1 µM | GI50 (MOLT-4 leukemia) 5.18 µM | GI50 (NCI-H226 lung) 15 µM | GI50 (NCI-H23 lung) 15 µM | GI50 (NCI-H460 lung) 4.44 µM | GI50 (NCI-H522 lung) 4.46 µM | GI50 (NCI/ADR-RES ovarian) 14.7 µM | GI50 (OVCAR-3 ovarian) 13.7 µM | GI50 (OVCAR-4 ovarian) 15.1 µM | GI50 (OVCAR-5 ovarian) 15.4 µM | GI50 (OVCAR-8 ovarian) 8.07 µM | GI50 (PC-3 prostate) 16.2 µM | GI50 (RPMI-8226 leukemia) 3.43 µM | GI50 (RXF 393 renal) 3.77 µM | GI50 (SF-268 CNS) 5.56 µM | GI50 (SF-539 CNS) 15.3 µM | GI50 (SK-MEL-28 melanoma) 15.3 µM | GI50 (SK-MEL-5 melanoma) 4.74 µM | GI50 (SK-OV-3 ovarian) 15.4 µM | GI50 (SN12C renal) 3.69 µM | GI50 (SNB-19 CNS) 14.4 µM | GI50 (SNB-75 CNS) 13.6 µM | GI50 (SR leukemia) 2.83 µM | GI50 (SW-620 colon) 5.6 µM | GI50 (T-47D breast) 4.69 µM | GI50 (TK-10 renal) 6.81 µM | GI50 (U251 CNS) 7.4 µM | GI50 (UACC-62 melanoma) 7.15 µM | GI50 (UO-31 renal) 4.49 µM
23.1 µM: TGI (786-0 renal)
21 µM: TGI (SF-268 CNS)
20.3 µM: TGI (T-47D breast)
6.42 µM: TGI (CAKI-1 renal)
31.8 µM: TGI (SNB-19 CNS)
3.83 µM: TGI (BT-549 breast)
25.6 µM: TGI (MDA-MB-231 breast)
26.6 µM: TGI (OVCAR-3 ovarian)
19.2 µM: TGI (HT29 colon)
27.3 µM: TGI (DU-145 prostate)
22.2 µM: TGI (UACC-62 melanoma)
20.7 µM: TGI (ACHN renal) | TGI (TK-10 renal)
16.9 µM: TGI (NCI-H460 lung) | TGI (SK-MEL-5 melanoma)
58.3 µM: TGI (HS 578T breast)
22.5 µM: TGI (MALME-3M melanoma)
14.6 µM: TGI (SR leukemia)
29.8 µM: TGI (OVCAR-5 ovarian) | TGI (SK-MEL-28 melanoma)
60.4 µM: TGI (K-562 leukemia)
44.7 µM: TGI (NCI/ADR-RES ovarian)
16.1 µM: TGI (MCF7 breast)
19.1 µM: TGI (SW-620 colon)
18.1 µM: TGI (RXF 393 renal) | TGI (SN12C renal)
22.4 µM: TGI (HCT-15 colon) | TGI (HOP-62 NSCLC)
17.4 µM: TGI (CCRF-CEM leukemia) | TGI (RPMI-8226 leukemia)

COc1cccc(C2=C(c3c(C)n(C)c4ccccc34)C(=O)NC2=O)c1
inactive: GI50 (786-0 renal) > 25 µM | GI50 (A498 renal) 8.99 µM | GI50 (A549 NSCLC) 16.4 µM | GI50 (ACHN renal) > 25 µM | GI50 (BT-549 breast) > 21.7 µM | GI50 (CAKI-1 renal) > 25 µM | GI50 (CCRF-CEM leukemia) > 25 µM | GI50 (COLO 205 colon) 14.8 µM | GI50 (DU-145 prostate) > 25 µM | GI50 (HCC-2998 colon) > 25 µM | GI50 (HCT-116 colon) 19.7 µM | GI50 (HCT-15 colon) 12.1 µM | GI50 (HL-60(TB) leukemia) > 17.1 µM | GI50 (HOP-62 NSCLC) > 25 µM | GI50 (HS 578T breast) 12.1 µM | GI50 (HT29 colon) 14.4 µM | GI50 (IGROV1 ovarian) > 22.3 µM | GI50 (K-562 leukemia) 11 µM | GI50 (KM12 colon) 15.5 µM | GI50 (LOX IMVI melanoma) > 25 µM | GI50 (M14 melanoma) 21.1 µM | GI50 (MALME-3M melanoma) > 21.2 µM | GI50 (MCF7 breast) 17.5 µM | GI50 (MDA-MB-231 breast) > 25 µM | GI50 (MDA-MB-435) 7.33 µM | GI50 (MOLT-4 leukemia) 16.1 µM | GI50 (NCI-H226 lung) > 19.1 µM | GI50 (NCI-H23 lung) > 25 µM | GI50 (NCI-H460 lung) > 25 µM | GI50 (NCI-H522 lung) 15.3 µM | GI50 (NCI/ADR-RES ovarian) 14 µM | GI50 (OVCAR-3 ovarian) > 23.9 µM | GI50 (OVCAR-4 ovarian) > 21.5 µM | GI50 (OVCAR-5 ovarian) > 25 µM | GI50 (OVCAR-8 ovarian) > 25 µM | GI50 (PC-3 prostate) 16.3 µM | GI50 (RPMI-8226 leukemia) > 25 µM | GI50 (RXF 393 renal) 12 µM | GI50 (SF-268 CNS) > 23.1 µM | GI50 (SF-295 CNS) > 25 µM | GI50 (SF-539 CNS) > 25 µM | GI50 (SK-MEL-2 melanoma) > 25 µM | GI50 (SK-MEL-28 melanoma) 24.9 µM | GI50 (SK-MEL-5 melanoma) 9.81 µM | GI50 (SK-OV-3 ovarian) > 25 µM | GI50 (SN12C renal) > 25 µM | GI50 (SNB-19 CNS) > 25 µM | GI50 (SNB-75 CNS) 6.63 µM | GI50 (SR leukemia) 11.8 µM | GI50 (SW-620 colon) 12.4 µM | GI50 (T-47D breast) 8.83 µM | GI50 (TK-10 renal) 24.2 µM | GI50 (U251 CNS) > 25 µM | GI50 (UACC-257 melanoma) > 25 µM | GI50 (UACC-62 melanoma) 12.3 µM | GI50 (UO-31 renal) 14 µM
> 25 µM: TGI (786-0 renal) | TGI (A498 renal) | TGI (A549 NSCLC) | TGI (ACHN renal) | TGI (BT-549 breast) | TGI (CAKI-1 renal) | TGI (CCRF-CEM leukemia) | TGI (COLO 205 colon) | TGI (DU-145 prostate) | TGI (HCC-2998 colon) | TGI (HCT-116 colon) | TGI (HCT-15 colon) | TGI (HL-60(TB) leukemia) | TGI (HOP-62 NSCLC) | TGI (HS 578T breast) | TGI (HT29 colon) | TGI (IGROV1 ovarian) | TGI (K-562 leukemia) | TGI (KM12 colon) | TGI (LOX IMVI melanoma) | TGI (M14 melanoma) | TGI (MALME-3M melanoma) | TGI (MCF7 breast) | TGI (MDA-MB-231 breast) | TGI (MDA-MB-435) | TGI (MOLT-4 leukemia) | TGI (NCI-H226 lung) | TGI (NCI-H23 lung) | TGI (NCI-H460 lung) | TGI (NCI-H522 lung) | TGI (NCI/ADR-RES ovarian) | TGI (OVCAR-3 ovarian) | TGI (OVCAR-4 ovarian) | TGI (OVCAR-5 ovarian) | TGI (OVCAR-8 ovarian) | TGI (PC-3 prostate) | TGI (RPMI-8226 leukemia) | TGI (RXF 393 renal) | TGI (SF-268 CNS) | TGI (SF-295 CNS) | TGI (SF-539 CNS) | TGI (SK-MEL-2 melanoma) | TGI (SK-MEL-28 melanoma) | TGI (SK-MEL-5 melanoma) | TGI (SK-OV-3 ovarian) | TGI (SN12C renal) | TGI (SNB-19 CNS) | TGI (SNB-75 CNS) | TGI (SR leukemia) | TGI (SW-620 colon) | TGI (T-47D breast) | TGI (TK-10 renal) | TGI (U251 CNS) | TGI (UACC-257 melanoma) | TGI (UACC-62 melanoma) | TGI (UO-31 renal)
